Molecular target: recombinant human SAE enzyme (Homo sapiens (Human), UniProt Q9UBT2)
Assay: SAE HTRF enzyme assay
Assay type: biochemical
Conditions: for inhibition at 0.111 µM: read-out: Percent Inhibition
Outline: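 Sumoylation of Ubc9-GST by SAE was followed at low ATP (0.5 μM), pH 7.5, 24° C. for 105 min. Product was detected by HTRF with antibody pairs against Flag and GST tags.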

[1] = SAE inhibition at compound concentration 0.111 μM
[2] = SAE inhibition, class symbols, legend in nM

recombinant human SAE enzyme, sequence (Q9UBT2 whole entry): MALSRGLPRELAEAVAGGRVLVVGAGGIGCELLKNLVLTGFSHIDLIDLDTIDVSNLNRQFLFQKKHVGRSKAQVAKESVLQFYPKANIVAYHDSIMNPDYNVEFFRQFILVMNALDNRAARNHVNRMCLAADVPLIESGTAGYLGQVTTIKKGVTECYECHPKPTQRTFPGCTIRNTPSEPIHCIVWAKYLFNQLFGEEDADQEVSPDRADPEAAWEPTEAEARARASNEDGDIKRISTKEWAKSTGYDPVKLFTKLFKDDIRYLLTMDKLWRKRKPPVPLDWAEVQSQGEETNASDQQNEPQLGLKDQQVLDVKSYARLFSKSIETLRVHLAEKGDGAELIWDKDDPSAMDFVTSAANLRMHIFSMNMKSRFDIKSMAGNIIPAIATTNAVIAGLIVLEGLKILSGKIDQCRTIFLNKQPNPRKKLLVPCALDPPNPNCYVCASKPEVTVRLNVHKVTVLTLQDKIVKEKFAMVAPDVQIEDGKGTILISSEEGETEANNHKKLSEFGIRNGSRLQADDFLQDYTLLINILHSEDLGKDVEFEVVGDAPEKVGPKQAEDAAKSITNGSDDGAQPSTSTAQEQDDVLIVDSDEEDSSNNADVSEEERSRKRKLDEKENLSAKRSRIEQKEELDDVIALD
recombinant human SAE enzyme, sequence (Q9UBE0 whole entry partner): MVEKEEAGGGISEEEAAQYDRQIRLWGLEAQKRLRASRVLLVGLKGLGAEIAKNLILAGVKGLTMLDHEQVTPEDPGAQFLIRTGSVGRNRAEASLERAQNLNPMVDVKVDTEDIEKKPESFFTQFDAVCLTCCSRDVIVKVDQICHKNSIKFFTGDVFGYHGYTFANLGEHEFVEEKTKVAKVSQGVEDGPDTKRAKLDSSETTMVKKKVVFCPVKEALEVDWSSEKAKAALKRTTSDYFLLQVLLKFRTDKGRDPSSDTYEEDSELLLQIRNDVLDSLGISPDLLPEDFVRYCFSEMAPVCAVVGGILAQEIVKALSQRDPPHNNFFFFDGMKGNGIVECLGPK

SMILES | Percent Inhibition (Concentration 0.111 μM) | IC50 (class symbols A/B/C) [nM] | Percent Inhibition [1] [%] | IC50 [2] [nM] | inhibition at 0.111 µM (Concentration 0.111 μM) [%]
NS(=O)(=O)OC[C@H]1C[C@@H](Nc2ncncc2C(=O)c2cc([C@@]3(c4cccc(Cl)c4)CCCN3)cs2)C[C@@H]1O (single isomer, unassigned) [I-38a, [(1R,2S,4R)-4-{[5-({4-[(2S)-2-(3-chlorophenyl)pyrrolidin-2-yl]-2-thienyl}carbonyl)pyrimidin-4-yl]amino}-2-hydroxycyclopentyl]methyl sulfamate or [(1R,2S,4R)-4-{[5-({4-[(2R)-2-(3-chlorophenyl)pyrrolidin-2-yl]-2-thienyl}carbonyl)pyrimidin-4-yl]amino}-2-hydroxycyclopentyl]methyl sulfamate] | 75 | 10 to 100 |  |  | 
COCc1sc(C(=O)c2cncnc2N[C@@H]2C[C@H](COS(N)(=O)=O)[C@@H](O)C2)cc1C(O)c1cccc(Cl)c1 (single isomer, unassigned) [I-7a, [(1R,2S,4R)-4-{[5-({4-[(R)-(3-chlorophenyl)(hydroxy)methyl]-5-(methoxymethyl)-2-thienyl}carbonyl)pyrimidin-4-yl]amino}-2-hydroxycyclopentyl]methyl sulfamate or [(1R,2S,4R)-4-{[5-({4-[(S)-(3-chlorophenyl)(hydroxy)methyl]-5-(methoxymethyl)-2-thienyl}carbonyl)pyrimidin-4-yl]amino}-2-hydroxycyclopentyl]methyl sulfamate] | 96 | < 10 |  |  | 
NS(=O)(=O)OC[C@H]1C[C@@H](Nc2ncncc2C(=O)c2cc(C3NCCc4ccc(Cl)cc43)cs2)C[C@@H]1O (single isomer, unassigned) [I-274b, [(1R,2S,4R)-4-{[5-({4-[(1R)-7-chloro-1,2,3,4-tetrahydroisoquinolin-1-yl]-2-thienyl}carbonyl)pyrimidin-4-yl]amino}-2-hydroxycyclopentyl]methyl sulfamate or [(1R,2S,4R)-4-{[5-({4-[(1S)-7-chloro-1,2,3,4-tetrahydroisoquinolin-1-yl]-2-thienyl}carbonyl)pyrimidin-4-yl]amino}-2-hydroxycyclopentyl]methyl sulfamate] | 81 | 10 to 100 |  |  | 
Cc1sc(C(=O)c2cncnc2N[C@@H]2C[C@H](COS(N)(=O)=O)[C@@H](O)C2)cc1[C@H](O)c1cccc(Cl)c1 (single isomer, unassigned) [I-11a, [(1R,2S,4R)-4-{[5-({4-[(R)-(3-chlorophenyl)(hydroxy)methyl]-5-methyl-2-thienyl}carbonyl)pyrimidin-4-yl]amino}-2-hydroxycyclopentyl]methyl sulfamate or [(1R,2S,4R)-4-{[5-({4-[(S)-(3-chlorophenyl)(hydroxy)methyl]-5-methyl-2-thienyl}carbonyl)pyrimidin-4-yl]amino}-2-hydroxycyclopentyl]methyl sulfamate] | 93 | < 10 |  |  | 
NS(=O)(=O)OC[C@H]1C[C@@H](Nc2ncncc2C(=O)c2cc(C3OCCc4ccc(Cl)cc43)cs2)C[C@@H]1O (single isomer, unassigned) [I-261b, [(1R,2S,4R)-4-{[5-({4-[(1R)-7-chloro-3,4-dihydro-1H-isochromen-1-yl]-2-thienyl}carbonyl)pyrimidin-4-yl]amino}-2-hydroxycyclopentyl]methyl sulfamate or [(1R,2S,4R)-4-{[5-({4-[(1S)-7-chloro-3,4-dihydro-1H-isochromen-1-yl]-2-thienyl}carbonyl)pyrimidin-4-yl]amino}-2-hydroxycyclopentyl]methyl sulfamate] | 99 | < 10 |  |  | 
NS(=O)(=O)OC[C@H]1C[C@@H](Nc2ncncc2C(=O)c2cc([C@@H]3CCc4ccc(Cl)cc43)cs2)C[C@@H]1O (mixture of isomers) [I-349, [(1R,2S,4R)-4-{[5-({4-[(1R)-6-chloro-2,3-dihydro-1H-inden-1-yl]-2-thienyl}carbonyl)pyrimidin-4-yl]amino}-2-hydroxycyclopentyl]methyl sulfamate and [(1R,2S,4R)-4-{[5-({4-[(1S)-6-chloro-2,3-dihydro-1H-inden-1-yl]-2-thienyl}carbonyl)pyrimidin-4-yl]amino}-2-hydroxycyclopentyl]methyl sulfamate] |  |  | 42 | 100 to 1000 | 
NS(=O)(=O)OC[C@H]1C[C@@H](Nc2ncncc2C(=O)c2cc([C@@H]3OCCCc4ccc(Cl)cc43)cs2)C[C@@H]1O (single isomer, unassigned) [I-314a, [(1R,2S,4R)-4-{[5-({4-[(1R)-8-chloro-1,3,4,5-tetrahydro-2-benzoxepin-1-yl]-2-thienyl}carbonyl)pyrimidin-4-yl]amino}-2-hydroxycyclopentyl]methyl sulfamate or [(1R,2S,4R)-4-{[5-({4-[(1S)-8-chloro-1,3,4,5-tetrahydro-2-benzoxepin-1-yl]-2-thienyl}carbonyl)pyrimidin-4-yl]amino}-2-hydroxycyclopentyl]methyl sulfamate] |  |  | 49 | 100 to 1000 | 
Cc1sc(C(=O)c2cncnc2N[C@@H]2C[C@H](COS(N)(=O)=O)[C@@H](O)C2)cc1[C@@H]1OCCc2ccsc21 (single isomer, unassigned) [I-269a, [(1R,2S,4R)-4-{[5-({4-[(7S)-4,7-dihydro-5H-thieno[2,3-c]pyran-7-yl]-5-methyl-2-thienyl}carbonyl)pyrimidin-4-yl]amino}-2-hydroxycyclopentyl]methyl sulfamate or [(1R,2S,4R)-4-{[5-({4-[(7R)-4,7-dihydro-5H-thieno[2,3-c]pyran-7-yl]-5-methyl-2-thienyl}carbonyl)pyrimidin-4-yl]amino}-2-hydroxycyclopentyl]methyl sulfamate] | 101 | < 10 |  |  | 
NS(=O)(=O)OC[C@H]1C[C@@H](Nc2ncncc2C(=O)c2cc([C@@H]3OCCc4ccc(Cl)nc43)c(Cl)s2)C[C@@H]1O (single isomer, unassigned) [I-276a, [(1R,2S,4R)-4-{[5-({5-chloro-4-[(8S)-2-chloro-5,8-dihydro-6H-pyrano[3,4-b]pyridin-8-yl]-2-thienyl}carbonyl)pyrimidin-4-yl]amino}-2-hydroxycyclopentyl]methyl sulfamate or [(1R,2S,4R)-4-{[5-({5-chloro-4-[(8R)-2-chloro-5,8-dihydro-6H-pyrano[3,4-b]pyridin-8-yl]-2-thienyl}carbonyl)pyrimidin-4-yl]amino}-2-hydroxycyclopentyl]methyl sulfamate] | 28 | 100 to 1000 |  |  | 
Cc1sc(C(=O)c2cncnc2N[C@@H]2C[C@H](COS(N)(=O)=O)[C@@H](O)C2)cc1Cn1cccn1 [I-109, {(1R,2S,4R)-2-Hydroxy-4-[(5-{[5-methyl-4-(1H-pyrazol-1-ylmethyl)-2-thienyl]carbonyl}pyrimidin-4-yl)amino]cyclopentyl)methyl sulfamate] |  | < 10 |  |  | 96
Cc1sc(C(=O)c2cncnc2N[C@@H]2C[C@H](COS(N)(=O)=O)[C@@H](O)C2)cc1[C@H](C)c1cccc(Cl)c1 (single isomer, unassigned) [I-135a, [(1R,2S,4R)-4-{[5-({4-[(1R)-1-(3-chlorophenyl)ethyl]-5-methyl-2-thienyl}carbonyl)pyrimidin-4-yl]amino}-2-hydroxycyclopentyl]methyl sulfamate or [(1R,2S,4R)-4-{[5-({4-[(1S)-1-(3-chlorophenyl)ethyl]-5-methyl-2-thienyl}carbonyl)pyrimidin-4-yl]amino}-2-hydroxycyclopentyl]methyl sulfamate] | 82 | 10 to 100 |  |  | 
CC(C)(O)c1ccc(C(=O)c2cncnc2N[C@@H]2C[C@H](COS(N)(=O)=O)[C@@H](O)C2)s1 [I-235, {(1R,2S,4R)-2-hydroxy-4-[(5-{[5-(2-hydroxypropan-2-yl)-2-thienyl]carbonyl}pyrimidin-4-yl)amino]cyclopentyl}methyl sulfamate] |  | 100 to 1000 |  |  | 22
NS(=O)(=O)OC[C@H]1C[C@@H](Nc2ncncc2C(=O)c2cc([C@H]3OCCc4c(Cl)cccc43)cs2)C[C@@H]1O (mixture of isomers) [I-301, [(1R,2S,4R)-4-{[5-({4-[(1R)-5-chloro-3,4-dihydro-1H-isochromen-1-yl]-2-thienyl}carbonyl)pyrimidin-4-yl]amino}-2-hydroxycyclopentyl]methyl sulfamate and [(1R,2S,4R)-4-{[5-({4-[(1S)-5-chloro-3,4-dihydro-1H-isochromen-1-yl]-2-thienyl}carbonyl)pyrimidin-4-yl]amino}-2-hydroxycyclopentyl]methyl sulfamate] |  |  | 99 | < 10 | 
NS(=O)(=O)OC[C@H]1C[C@@H](Nc2ncncc2C(=O)c2cc([C@H](O)c3cccc(Cl)c3F)c(Cl)s2)C[C@@H]1O (mixture of isomers) [I-40, [(1R,2S,4R)-4-{[5-({5-chloro-4-[(R)-(3-chloro-2-fluorophenyl)(hydroxy)methyl]-2-thienyl}carbonyl)pyrimidin-4-yl]amino}-2-hydroxycyclopentyl]methyl sulfamate and [(1R,2S,4R)-4-{[5-({5-chloro-4-[(S)-(3-chloro-2-fluorophenyl)(hydroxy)methyl]-2-thienyl}carbonyl)pyrimidin-4-yl]amino}-2-hydroxycyclopentyl]methyl sulfamate] | 96 | < 10 |  |  | 
CC(O)(c1cccc(Cl)c1)c1coc(C(=O)c2cncnc2NC2CC(O)C(COS(N)(=O)=O)C2)c1 (mixture of isomers) [I-30, {(1R,2S,4R)-4-[(5-{4-[(1S)-1-(3-chlorophenyl)-1-hydroxyethyl]-2-furoyl}pyrimidin-4-yl)amino]-2-hydroxycyclopentyl}methyl sulfamate and {(1R,2S,4R)-4-[(5-{4-[(1R)-1-(3-chlorophenyl)-1-hydroxyethyl]-2-furoyl}pyrimidin-4-yl)amino]-2-hydroxycyclopentyl}methyl sulfamate] | 98 | < 10 |  |  | 
